# Reference: PubChem BioAssay AID743483 (Broad Institute, 2014)
# Active and inactive are the calls of the source.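 How the source made its calls: active means cell killing, with a fitted active concentration at or below twice the top valid dose tested; inconclusive means flat partial cell loss, or a poor curve fit; inactive means effect in the rising direction, plus the rest.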
# System: not listed separately
# Test: A549 lung cell viability reduction – CellTiter-Glo luminescence, dry powder, cytotoxicity control, dose response (AID 743483)
# Details: A549 viability, CellTiter-Glo ATP luminescence, 72 h; at 12 µM (top of the series)
row,Structure (SMILES),"activity change, negative = cytotoxicity"
1,C[C@H](CO)N1C[C@H](C)[C@H](CN(C)C(=O)Nc2ccc(F)cc2)OCCCC[C@H](C)Oc2ccc(NC(=O)C3CCCC3)cc2C1=O,12.9% (inactive)
2,C[C@H](CO)N1C[C@H](C)[C@H](CN(C)C(=O)Nc2ccccc2)OCCCC[C@H](C)Oc2ccc(NC(=O)CCC(F)(F)F)cc2C1=O,12.7% (inactive)

# Same assay, conditions: A549 viability, CellTiter-Glo ATP luminescence, 72 h; at 26 µM (top of the series)
row,Structure (SMILES),"activity change, negative = cytotoxicity"
1,C[C@@H]1CN([C@@H](C)CO)C(=O)c2cc(NC(=O)C3CCCCC3)ccc2O[C@@H](C)CCCCO[C@@H]1CN(C)C(=O)Nc1cccc2ccccc12,-22.9% (inactive)
2,C[C@H](CO)N1C[C@H](C)[C@H](CN(C)C(=O)Nc2ccc(F)cc2)OCCCC[C@H](C)Oc2ccc(NC(=O)C3CCCCC3)cc2C1=O,-8.92% (inactive)
3,C[C@H](CO)N1C[C@H](C)[C@H](CN(C)C(=O)Nc2cccc3ccccc23)OCCCC[C@H](C)Oc2ccc(NC(=O)NC3CCCCC3)cc2C1=O,-18.8% (inactive)
4,CC(C)(C)c1ccc(-c2nc(-c3ccncc3)no2)cc1,-8.72% (inactive)
5,C[C@H](CO)N1C[C@H](C)[C@H](CN(C)C(=O)Nc2ccc(F)cc2)OCCCC[C@H](C)Oc2ccc(NC(=O)C3CCCCCC3)cc2C1=O,-13.4% (inactive)
6,C[C@H]1CCCCO[C@@H](CN(C)C(=O)Nc2ccccc2)[C@@H](C)CN([C@@H](C)CO)C(=O)c2cc(NC(=O)NC3CCCCC3)ccc2O1,-3.65% (inactive)
7,C[C@H](CO)N1C[C@H](C)[C@H](CN(C)C(=O)Nc2cccc3ccccc23)OCCCC[C@H](C)Oc2ccc(NC(=O)CCC(F)(F)F)cc2C1=O,-6.54% (inactive)
8,C[C@H](CO)N1C[C@H](C)[C@H](CN(C)C(=O)Nc2ccc(F)cc2)OCCCC[C@H](C)Oc2ccc(NC(=O)NC3CCCCC3)cc2C1=O,-3.88% (inactive)
9,C[C@H](CO)N1C[C@H](C)[C@H](CN(C)C(=O)Nc2ccccc2F)OCCCC[C@H](C)Oc2ccc(NC(=O)C3CCCCC3)cc2C1=O,-18.7% (inactive)
10,C[C@H](CO)N1C[C@H](C)[C@H](CN(C)C(=O)Nc2ccc3c(c2)OCO3)OCCCC[C@H](C)Oc2ccc(NC(=O)NC3CCCCC3)cc2C1=O,-4.36% (inactive)
11,C[C@H](CO)N1C[C@H](C)[C@@H](CN(C)C(=O)Nc2cccc3ccccc23)OCCCC[C@H](C)Oc2ccc(NC(=O)C3CCCCC3)cc2C1=O,-15.8% (inactive)
12,C[C@@H]1CCCCO[C@H](CN(C)C(=O)Nc2cccc3ccccc23)[C@H](C)CN([C@@H](C)CO)C(=O)c2cc(NC(=O)C3CCCCC3)ccc2O1,-22.6% (inactive)
13,C[C@H](CO)N1C[C@H](C)[C@H](CN(C)C(=O)Nc2ccc3c(c2)OCO3)OCCCC[C@H](C)Oc2ccc(NC(=O)C3CCCCC3)cc2C1=O,-3.37% (inactive)
14,COc1ccc(NC(=O)N(C)C[C@@H]2OCCCC[C@H](C)Oc3ccc(NC(=O)NC4CCCCC4)cc3C(=O)N([C@H](C)CO)C[C@@H]2C)cc1,3.04% (inactive)
15,C[C@H](CO)N1C[C@H](C)[C@H](CN(C)C(=O)Nc2cccc3ccccc23)OCCCC[C@H](C)Oc2ccc(NC(=O)C3CCCCC3)cc2C1=O,-19% (inactive)
16,C[C@H](CO)N1C[C@H](C)[C@H](CN(C)C(=O)Nc2ccccc2)OCCCC[C@H](C)Oc2ccc(NC(=O)C3CCCCC3)cc2C1=O,-8.81% (inactive)
17,C[C@H](CO)N1C[C@H](C)[C@H](CN(C)C(=O)Nc2ccccc2)OCCCC[C@H](C)Oc2ccc(NC(=O)Nc3ccccc3)cc2C1=O,3.79% (inactive)
18,C[C@H](CO)N1C[C@H](C)[C@H](CN(C)C(=O)Nc2ccccc2)OCCCC[C@H](C)Oc2ccc(NC(=O)NC3CCCCC3)cc2C1=O,-4.06% (inactive)
19,C[C@H](CO)N1C[C@H](C)[C@H](CN(C)C(=O)Nc2ccc3ccccc3c2)OCCCC[C@H](C)Oc2ccc(NC(=O)C3CCCCC3)cc2C1=O,2.71% (inactive)

row,Structure (SMILES),"activity change, negative = cytotoxicity"
1,C[C@H](CO)N1C[C@H](C)[C@H](CN(C)C(=O)Nc2ccc(F)cc2)OCCCC[C@H](C)Oc2ccc(NC(=O)Nc3ccccc3)cc2C1=O,-4.11% (inactive)
2,C[C@H]1CCCCO[C@@H](CN(C)C(=O)Nc2ccc3c(c2)OCO3)[C@@H](C)CN([C@@H](C)CO)C(=O)c2cc(NC(=O)NC3CCCCC3)ccc2O1,-15% (inactive)
3,C[C@@H]1CCCCO[C@@H](CN(C)C(=O)Nc2cccc3ccccc23)[C@@H](C)CN([C@H](C)CO)C(=O)c2cc(NC(=O)C3CCCCC3)ccc2O1,-24.4% (inactive)
4,C[C@H](CO)N1C[C@H](C)[C@H](CN(C)C(=O)Nc2ccc(F)cc2)OCCCC[C@H](C)Oc2ccc(NC(=O)Nc3ccc(F)cc3)cc2C1=O,-13.3% (inactive)
5,C[C@@H]1CCCCO[C@@H](CN(C)C(=O)Nc2cccc3ccccc23)[C@H](C)CN([C@@H](C)CO)C(=O)c2cc(NC(=O)C3CCCCC3)ccc2O1,-18.7% (inactive)
6,CC(=O)Nc1ccc2c(c1)C(=O)N([C@H](C)CO)C[C@H](C)[C@H](CN(C)C(=O)Nc1ccc(F)cc1)OCCCC[C@H](C)O2,-6.53% (inactive)
7,C[C@@H]1CCCCO[C@H](CN(C)C(=O)Nc2cccc3ccccc23)[C@@H](C)CN([C@@H](C)CO)C(=O)c2cc(NC(=O)C3CCCCC3)ccc2O1,-19.7% (inactive)
8,C[C@H](CO)N1C[C@H](C)[C@H](CN(C)C(=O)Nc2ccccc2)OCCCC[C@H](C)Oc2ccc(NC(=O)Nc3ccc4c(c3)OCO4)cc2C1=O,-21.2% (inactive)
9,C[C@H](CO)N1C[C@H](C)[C@H](CN(C)C(=O)Nc2cccc(F)c2)OCCCC[C@H](C)Oc2ccc(NC(=O)C3CCCCC3)cc2C1=O,-12.5% (inactive)
10,C[C@@H]1CCCCO[C@@H](CN(C)C(=O)Nc2cccc3ccccc23)[C@H](C)CN([C@H](C)CO)C(=O)c2cc(NC(=O)C3CCCCC3)ccc2O1,-11.3% (inactive)
11,C[C@H]1CCCCO[C@@H](CN(C)C(=O)Nc2ccc(F)cc2)[C@@H](C)CN([C@@H](C)CO)C(=O)c2cc(NC(=O)C3CCCCC3)ccc2O1,-21.4% (inactive)
12,COc1ccc(NC(=O)N(C)C[C@@H]2OCCCC[C@H](C)Oc3ccc(NC(=O)C4CCCCC4)cc3C(=O)N([C@H](C)CO)C[C@@H]2C)cc1,-14.8% (inactive)
13,Cc1ccc(NC(=O)N(C)C[C@@H]2OCCCC[C@H](C)Oc3ccc(NC(=O)C4CCCCC4)cc3C(=O)N([C@H](C)CO)C[C@@H]2C)cc1,-2.73% (inactive)
14,C[C@H](CO)N1C[C@H](C)[C@H](CN(C)C(=O)Nc2cccc3ccccc23)OCCCC[C@H](C)Oc2ccc(NC(=O)c3ccccc3)cc2C1=O,-18.3% (inactive)
15,C[C@H](CO)N1C[C@H](C)[C@H](CN(C)C(=O)Nc2ccc(F)cc2)OCCCC[C@H](C)Oc2ccc(NC(=O)C3CC3)cc2C1=O,2.37% (inactive)
16,C[C@H](CO)N1C[C@H](C)[C@H](CN(C)C(=O)Nc2ccc(F)cc2)OCCCC[C@H](C)Oc2ccc(NC(=O)C3CCC3)cc2C1=O,-1.54% (inactive)
17,C[C@H](CO)N1C[C@H](C)[C@H](CN(C)C(=O)Nc2ccc(F)cc2)OCCCC[C@H](C)Oc2ccc(NC(=O)C3CCOCC3)cc2C1=O,4.42% (inactive)
18,C[C@@H]1CCCCO[C@H](CN(C)C(=O)Nc2cccc3ccccc23)[C@H](C)CN([C@H](C)CO)C(=O)c2cc(NC(=O)C3CCCCC3)ccc2O1,-21.8% (inactive)
19,C[C@H](CO)N1C[C@H](C)[C@H](CN(C)C(=O)Nc2ccc(C(F)(F)F)cc2)OCCCC[C@H](C)Oc2ccc(NC(=O)NC3CCCCC3)cc2C1=O,-9.21% (inactive)

# System: A549 viability, CellTiter-Glo ATP luminescence, 72 h
# Test: as above
# Details: not given
row,Structure (SMILES),IC50
1,COc1ccc(S(=O)(=O)N(C)C[C@@H]2OCCCC[C@H](C)Oc3ccc(NS(=O)(=O)c4ccc(Cl)cc4)cc3C(=O)N([C@@H](C)CO)C[C@@H]2C)cc1,22.1 µM
2,C[C@@H]1CN([C@H](C)CO)C(=O)c2cc(NC(=O)C3CCCCC3)ccc2O[C@@H](C)CCCCO[C@H]1CN(C)C(=O)Nc1cccc2ccccc12,21.8 µM
3,C[C@@H]1CN([C@@H](C)CO)C(=O)c2cc(NC(=O)C3CCCCC3)ccc2O[C@@H](C)CCCCO[C@H]1CN(C)C(=O)Nc1cccc2ccccc12,6.41 µM
4,C[C@H]1CCCCO[C@@H](CN(C)S(=O)(=O)c2ccc(Cl)cc2)[C@@H](C)CN([C@@H](C)CO)C(=O)c2cc(NC(=O)NC3CCCCC3)ccc2O1,19.1 µM
